Measurements from ChEMBL document CHEMBL5321280, “Novel 4-Arylindolines Containing a Pyrido[3,2-d]pyrimidine Moiety as the Programmed Cell Death-1/Programmed Cell Death-Ligand 1 Interaction Inhibitors for Tumor Immunotherapy” (J Med Chem, 2023).
Calls of active or inactive are those of the source. The calls are words filed in the database; no cut-off is given here.

How the values were obtained:
[1] = target: Programmed cell death protein 1/Programmed cell death 1 ligand 1 (Homo sapiens, UniProt Q15116+Q9NZQ7); test: Inhibition of PD-1/PD-L1 (unknown origin) protein-protein interaction incubated for 105 mins by HTRF assay; type: protein-complex assay
[2] = Metabolic stability in human liver microsomes assessed as half life; type: ADME, Microsome
T-cell [3] = test: Immunomodulatory activity in concanavalin A stimulated BALB/c mouse T-lymphocyte co-cultured with mouse CT26 cells assessed as increase in T cell proliferation at 5 to 80 nM incubated for 48 hrs by flow cytometry; type: functional, cell-based; conditions: dose 5-80 nM
T-cell [4] = test: Immunomodulatory activity in concanavalin A stimulated BALB/c mouse T-lymphocyte co-cultured with mouse CT26 cells overexpressing PD-L1 assessed as increase in T cell proliferation at 5 to 80 nM incubated for 48 hrs by flow cytometry; type: functional, cell-based; conditions: dose 5-80 nM
T-cell [5] = test: Immunomodulatory activity in concanavalin A stimulated BALB/c mouse T-lymphocyte co-cultured with mouse CT26 cells assessed as T cell proliferation at 20 nM incubated for 48 hrs by flow cytometry (reference value: 64.08 +/- 0.91%); type: functional
T-cell [6] = test: Immunomodulatory activity in concanavalin A stimulated BALB/c mouse T-lymphocyte co-cultured with mouse CT26 cells overexpressing PD-L1 assessed as T cell proliferation at 20 nM incubated for 48 hrs by flow cytometry (reference value: 58.47 +/- 2.07%); type: functional

Programmed cell death protein 1/Programmed cell death 1 ligand 1, sequence (Q15116 whole entry): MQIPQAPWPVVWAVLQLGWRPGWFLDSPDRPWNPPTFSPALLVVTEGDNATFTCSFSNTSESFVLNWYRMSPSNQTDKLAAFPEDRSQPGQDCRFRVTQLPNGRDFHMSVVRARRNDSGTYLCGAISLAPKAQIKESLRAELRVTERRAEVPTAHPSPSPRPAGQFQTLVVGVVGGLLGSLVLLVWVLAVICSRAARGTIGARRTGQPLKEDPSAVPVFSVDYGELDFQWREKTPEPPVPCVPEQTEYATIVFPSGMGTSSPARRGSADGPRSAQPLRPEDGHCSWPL
Programmed cell death protein 1/Programmed cell death 1 ligand 1, sequence (Q9NZQ7 whole entry): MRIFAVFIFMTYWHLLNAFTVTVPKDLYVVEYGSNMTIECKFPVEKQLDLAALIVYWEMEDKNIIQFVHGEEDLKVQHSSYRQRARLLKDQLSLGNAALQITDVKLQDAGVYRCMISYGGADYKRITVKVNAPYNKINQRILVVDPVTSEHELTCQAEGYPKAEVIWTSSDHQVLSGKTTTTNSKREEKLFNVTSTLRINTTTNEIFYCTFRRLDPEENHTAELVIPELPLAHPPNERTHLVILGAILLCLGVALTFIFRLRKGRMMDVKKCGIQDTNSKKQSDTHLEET

half-life [2]	Structure (SMILES)	IC50 [1]	Activity (T-cell [3])	Activity (T-cell [4])	Activity (T-cell [5])	Activity (T-cell [6])
	O=C(O)[C@@H]1CCCCN1Cc1cnc2c(N3CCc4c(-c5ccccc5)cccc43)ncnc2c1	0.0266 µM				
1.51 h	c1ccc(-c2cccc3c2CCN3c2ncnc3cc(CNC4CCOCC4)cnc23)cc1	0.0212 µM				
3.47 h	OCCNCc1cnc2c(N3CCc4c(-c5ccccc5)cccc43)ncnc2c1	0.0068 µM	Active	Active	59.22%	60.06%
	O[C@@H]1CCN(Cc2cnc3c(N4CCc5c(-c6ccccc6)cccc54)ncnc3c2)C1	0.0132 µM				
	NS(=O)(=O)NCCNCc1cnc2c(N3CCc4c(-c5ccc6c(c5)OCCO6)cccc43)ncnc2c1	0.0315 µM				
	COCCNCc1cnc2c(N3CCc4c(-c5ccccc5)cccc43)ncnc2c1	0.0234 µM				
	O=C(O)[C@@H]1CCCN1Cc1cnc2c(N3CCc4c(-c5ccccc5)cccc43)ncnc2c1	0.0081 µM	Active	Active	64.03%	61.9%
	O=C(O)[C@@H]1CCN(Cc2cnc3c(N4CCc5c(-c6ccccc6)cccc54)ncnc3c2)C1	0.0086 µM	Active	Active	43.98%	38.74%
	OC[C@H]1CCN(Cc2cnc3c(N4CCc5c(-c6ccccc6)cccc54)ncnc3c2)C1	0.0214 µM				
	OCCNCc1cnc2c(N3CCc4c(-c5ccc6c(c5)OCCO6)cccc43)ncnc2c1	0.0072 µM	Active	Active	61.77%	59.54%
	CC(=O)NCCNCc1cnc2c(N3CCc4c(-c5ccc6c(c5)OCCO6)cccc43)ncnc2c1	0.0138 µM				
	O=C(O)[C@H]1CCCCN1Cc1cnc2c(N3CCc4c(-c5ccccc5)cccc43)ncnc2c1	0.0621 µM				
	O=C(O)[C@H]1CCN(Cc2cnc3c(N4CCc5c(-c6ccccc6)cccc54)nccc3c2)C1	0.0805 µM				
	O=C(O)[C@H]1CCN(Cc2cnc3c(N4CCc5c(-c6ccccc6)cccc54)ncnc3c2)C1	0.0081 µM	Active	Active	54.44%	52.78%
	c1ccc(-c2cccc3c2CCN3c2nccc3cc(CNC4CCOCC4)cnc23)cc1	0.128 µM				
	O[C@H]1CCN(Cc2cnc3c(N4CCc5c(-c6ccccc6)cccc54)ncnc3c2)C1	0.0174 µM				
